According to the NIST ThermoML archive (doi:10.1021/je900482x):
Numbers after ± are expanded uncertainties.

Experiment: isobaric coefficient of expansion
Settings: 328.15 K; 5000 kPa; Liquid; Microcalorimeter

SMILES	isobaric coefficient of expansion
CCn1cc[n+](C)c1.F[B-](F)(F)F [1-ethyl-3-methylimidazolium tetrafluoroborate]	0.000585 ± 1.4e-05 1/K
CCCCCC[n+]1ccn(C)c1.O=S(=O)([N-]S(=O)(=O)C(F)(F)F)C(F)(F)F	0.00065 ± 1.6e-05 1/K
CCCCCCCC[n+]1ccn(C)c1.F[B-](F)(F)F [1-methyl-3-octylimidazolium tetrafluoroborate]	0.000594 ± 1.2e-05 1/K
CCCC[n+]1cccc(C)c1.F[B-](F)(F)F [1-butyl-3-methylpyridinium tetrafluoroborate]	0.000575 ± 1.4e-05 1/K
CCCCCCn1cc[n+](C)c1.F[B-](F)(F)F [1-hexyl-3-methylimidazolium tetrafluoroborate]	0.000594 ± 1.5e-05 1/K
CCn1cc[n+](C)c1.O=S(=O)([N-]S(=O)(=O)C(F)(F)F)C(F)(F)F	0.000645 ± 1.6e-05 1/K

Same assay, conditions: 328.15 K; 10000 kPa; Liquid; Microcalorimeter

SMILES	isobaric coefficient of expansion
CCn1cc[n+](C)c1.F[B-](F)(F)F [1-ethyl-3-methylimidazolium tetrafluoroborate]	0.000578 ± 1.4e-05 1/K
CCCCCC[n+]1ccn(C)c1.O=S(=O)([N-]S(=O)(=O)C(F)(F)F)C(F)(F)F	0.000639 ± 1.6e-05 1/K
CCCCCCCC[n+]1ccn(C)c1.F[B-](F)(F)F [1-methyl-3-octylimidazolium tetrafluoroborate]	0.000587 ± 1.2e-05 1/K
CCCC[n+]1cccc(C)c1.F[B-](F)(F)F [1-butyl-3-methylpyridinium tetrafluoroborate]	0.00057 ± 1.4e-05 1/K
CCCCCCn1cc[n+](C)c1.F[B-](F)(F)F [1-hexyl-3-methylimidazolium tetrafluoroborate]	0.000587 ± 1.4e-05 1/K
CCn1cc[n+](C)c1.O=S(=O)([N-]S(=O)(=O)C(F)(F)F)C(F)(F)F	0.000635 ± 1.6e-05 1/K

Same assay, conditions: 328.15 K; 15000 kPa; Liquid; Microcalorimeter

SMILES	isobaric coefficient of expansion
CCn1cc[n+](C)c1.F[B-](F)(F)F [1-ethyl-3-methylimidazolium tetrafluoroborate]	0.000573 ± 1.4e-05 1/K
CCCCCC[n+]1ccn(C)c1.O=S(=O)([N-]S(=O)(=O)C(F)(F)F)C(F)(F)F	0.000632 ± 1.5e-05 1/K
CCCCCCCC[n+]1ccn(C)c1.F[B-](F)(F)F [1-methyl-3-octylimidazolium tetrafluoroborate]	0.00058 ± 1.2e-05 1/K
CCCC[n+]1cccc(C)c1.F[B-](F)(F)F [1-butyl-3-methylpyridinium tetrafluoroborate]	0.000568 ± 1.4e-05 1/K
CCCCCCn1cc[n+](C)c1.F[B-](F)(F)F [1-hexyl-3-methylimidazolium tetrafluoroborate]	0.00058 ± 1.4e-05 1/K
CCn1cc[n+](C)c1.O=S(=O)([N-]S(=O)(=O)C(F)(F)F)C(F)(F)F	0.000628 ± 1.5e-05 1/K

Same assay, conditions: 328.15 K; 20000 kPa; Liquid; Microcalorimeter

SMILES	isobaric coefficient of expansion
CCn1cc[n+](C)c1.F[B-](F)(F)F [1-ethyl-3-methylimidazolium tetrafluoroborate]	0.000566 ± 1.4e-05 1/K
CCCCCC[n+]1ccn(C)c1.O=S(=O)([N-]S(=O)(=O)C(F)(F)F)C(F)(F)F	0.000621 ± 1.5e-05 1/K
CCCCCCCC[n+]1ccn(C)c1.F[B-](F)(F)F [1-methyl-3-octylimidazolium tetrafluoroborate]	0.000572 ± 1.1e-05 1/K
CCCC[n+]1cccc(C)c1.F[B-](F)(F)F [1-butyl-3-methylpyridinium tetrafluoroborate]	0.00056 ± 1.4e-05 1/K
CCCCCCn1cc[n+](C)c1.F[B-](F)(F)F [1-hexyl-3-methylimidazolium tetrafluoroborate]	0.000572 ± 1.4e-05 1/K
CCn1cc[n+](C)c1.O=S(=O)([N-]S(=O)(=O)C(F)(F)F)C(F)(F)F	0.00062 ± 1.5e-05 1/K

Same assay, conditions: 328.15 K; 25000 kPa; Liquid; Microcalorimeter

SMILES	isobaric coefficient of expansion
CCn1cc[n+](C)c1.F[B-](F)(F)F [1-ethyl-3-methylimidazolium tetrafluoroborate]	0.000557 ± 1.4e-05 1/K
CCCCCC[n+]1ccn(C)c1.O=S(=O)([N-]S(=O)(=O)C(F)(F)F)C(F)(F)F	0.000609 ± 1.5e-05 1/K
CCCCCCCC[n+]1ccn(C)c1.F[B-](F)(F)F [1-methyl-3-octylimidazolium tetrafluoroborate]	0.000562 ± 1.1e-05 1/K
CCCC[n+]1cccc(C)c1.F[B-](F)(F)F [1-butyl-3-methylpyridinium tetrafluoroborate]	0.000554 ± 1.4e-05 1/K
CCCCCCn1cc[n+](C)c1.F[B-](F)(F)F [1-hexyl-3-methylimidazolium tetrafluoroborate]	0.000562 ± 1.4e-05 1/K
CCn1cc[n+](C)c1.O=S(=O)([N-]S(=O)(=O)C(F)(F)F)C(F)(F)F	0.000609 ± 1.5e-05 1/K

Same assay, conditions: 328.15 K; 30000 kPa; Liquid; Microcalorimeter

SMILES	isobaric coefficient of expansion
CCn1cc[n+](C)c1.F[B-](F)(F)F [1-ethyl-3-methylimidazolium tetrafluoroborate]	0.00055 ± 1.3e-05 1/K
CCCCCC[n+]1ccn(C)c1.O=S(=O)([N-]S(=O)(=O)C(F)(F)F)C(F)(F)F	0.000599 ± 1.5e-05 1/K
CCCCCCCC[n+]1ccn(C)c1.F[B-](F)(F)F [1-methyl-3-octylimidazolium tetrafluoroborate]	0.000555 ± 1.1e-05 1/K
CCCC[n+]1cccc(C)c1.F[B-](F)(F)F [1-butyl-3-methylpyridinium tetrafluoroborate]	0.000549 ± 1.3e-05 1/K
CCCCCCn1cc[n+](C)c1.F[B-](F)(F)F [1-hexyl-3-methylimidazolium tetrafluoroborate]	0.000555 ± 1.4e-05 1/K
CCn1cc[n+](C)c1.O=S(=O)([N-]S(=O)(=O)C(F)(F)F)C(F)(F)F	0.000601 ± 1.5e-05 1/K

Same assay, conditions: 328.15 K; 35000 kPa; Liquid; Microcalorimeter

SMILES	isobaric coefficient of expansion
CCn1cc[n+](C)c1.F[B-](F)(F)F [1-ethyl-3-methylimidazolium tetrafluoroborate]	0.000544 ± 1.3e-05 1/K
CCCCCC[n+]1ccn(C)c1.O=S(=O)([N-]S(=O)(=O)C(F)(F)F)C(F)(F)F	0.000591 ± 1.4e-05 1/K
CCCCCCCC[n+]1ccn(C)c1.F[B-](F)(F)F [1-methyl-3-octylimidazolium tetrafluoroborate]	0.000549 ± 1.1e-05 1/K
CCCC[n+]1cccc(C)c1.F[B-](F)(F)F [1-butyl-3-methylpyridinium tetrafluoroborate]	0.000545 ± 1.3e-05 1/K
CCCCCCn1cc[n+](C)c1.F[B-](F)(F)F [1-hexyl-3-methylimidazolium tetrafluoroborate]	0.000549 ± 1.3e-05 1/K
CCn1cc[n+](C)c1.O=S(=O)([N-]S(=O)(=O)C(F)(F)F)C(F)(F)F	0.000593 ± 1.5e-05 1/K

Same assay, conditions: 328.15 K; 40000 kPa; Liquid; Microcalorimeter

SMILES	isobaric coefficient of expansion
CCn1cc[n+](C)c1.F[B-](F)(F)F [1-ethyl-3-methylimidazolium tetrafluoroborate]	0.000537 ± 1.3e-05 1/K
CCCCCC[n+]1ccn(C)c1.O=S(=O)([N-]S(=O)(=O)C(F)(F)F)C(F)(F)F	0.000582 ± 1.4e-05 1/K
CCCCCCCC[n+]1ccn(C)c1.F[B-](F)(F)F [1-methyl-3-octylimidazolium tetrafluoroborate]	0.00054 ± 1.1e-05 1/K
CCCC[n+]1cccc(C)c1.F[B-](F)(F)F [1-butyl-3-methylpyridinium tetrafluoroborate]	0.000539 ± 1.3e-05 1/K
CCCCCCn1cc[n+](C)c1.F[B-](F)(F)F [1-hexyl-3-methylimidazolium tetrafluoroborate]	0.00054 ± 1.3e-05 1/K
CCn1cc[n+](C)c1.O=S(=O)([N-]S(=O)(=O)C(F)(F)F)C(F)(F)F	0.000584 ± 1.4e-05 1/K

Same assay, conditions: 328.15 K; 45000 kPa; Liquid; Microcalorimeter

SMILES	isobaric coefficient of expansion
CCn1cc[n+](C)c1.F[B-](F)(F)F [1-ethyl-3-methylimidazolium tetrafluoroborate]	0.000533 ± 1.3e-05 1/K
CCCCCC[n+]1ccn(C)c1.O=S(=O)([N-]S(=O)(=O)C(F)(F)F)C(F)(F)F	0.000574 ± 1.4e-05 1/K
CCCCCCCC[n+]1ccn(C)c1.F[B-](F)(F)F [1-methyl-3-octylimidazolium tetrafluoroborate]	0.000536 ± 1.1e-05 1/K
CCCC[n+]1cccc(C)c1.F[B-](F)(F)F [1-butyl-3-methylpyridinium tetrafluoroborate]	0.000535 ± 1.3e-05 1/K
CCCCCCn1cc[n+](C)c1.F[B-](F)(F)F [1-hexyl-3-methylimidazolium tetrafluoroborate]	0.000536 ± 1.3e-05 1/K
CCn1cc[n+](C)c1.O=S(=O)([N-]S(=O)(=O)C(F)(F)F)C(F)(F)F	0.000576 ± 1.4e-05 1/K

Same assay, conditions: 328.15 K; 50000 kPa; Liquid; Microcalorimeter

SMILES	isobaric coefficient of expansion
CCn1cc[n+](C)c1.F[B-](F)(F)F [1-ethyl-3-methylimidazolium tetrafluoroborate]	0.000528 ± 1.3e-05 1/K
CCCCCC[n+]1ccn(C)c1.O=S(=O)([N-]S(=O)(=O)C(F)(F)F)C(F)(F)F	0.000567 ± 1.4e-05 1/K
CCCCCCCC[n+]1ccn(C)c1.F[B-](F)(F)F [1-methyl-3-octylimidazolium tetrafluoroborate]	0.000531 ± 1.1e-05 1/K
CCCC[n+]1cccc(C)c1.F[B-](F)(F)F [1-butyl-3-methylpyridinium tetrafluoroborate]	0.000531 ± 1.3e-05 1/K
CCCCCCn1cc[n+](C)c1.F[B-](F)(F)F [1-hexyl-3-methylimidazolium tetrafluoroborate]	0.000531 ± 1.3e-05 1/K
CCn1cc[n+](C)c1.O=S(=O)([N-]S(=O)(=O)C(F)(F)F)C(F)(F)F	0.00057 ± 1.4e-05 1/K
